# According to PMC5218480 (PLoS ONE, 2017):
# Test system: MV-4-11 cells
# Assay: Gene expression microarray analysis (Affymetrix PrimeView) and GSEA
# Format: cell-based, human
# Parameters: RFU PODN (11730768_x_at) / Fold change /veh PODN (11730768_x_at) / RFU LINC00158 (11744669_a_at) / Fold change /veh LINC00158 (11744669_a_at) / RFU DUSP10 (11751237_a_at) / Fold change /veh DUSP10 (11751237_a_at) / RFU ID3 (11757404_x_at) / Fold change /veh ID3 (11757404_x_at) / RFU PLEKHG5 (11737974_s_at) / Fold change /veh PLEKHG5 (11737974_s_at) / RFU LRRC4B (11730491_at) / Fold change /veh LRRC4B (11730491_at) / RFU GIMAP4 (11747438_a_at) / Fold change /veh GIMAP4 (11747438_a_at) / RFU KRT8 (11758183_x_at) / Fold change /veh KRT8 (11758183_x_at) / RFU CNN1 (11734310_a_at) / Fold change /veh CNN1 (11734310_a_at) / RFU VPS37D (11726825_at) / Fold change /veh VPS37D (11726825_at) / RFU C10orf10 (11716522_x_at) / Fold change /veh C10orf10 (11716522_x_at) / RFU KIR2DL2 /// KIR2DL4 /// KIR2DL5A /// KIR2DL5B /// KIR2DS1 /// KIR2DS2 /// KIR2DS3 /// KIR2DS4 /// KIR3DL3 /// KIR3DL3 /// KIR3DS1 (11738374_at) / Fold change /veh KIR2DL2 /// KIR2DL4 /// KIR2DL5A /// KIR2DL5B /// KIR2DS1 /// KIR2DS2 /// KIR2DS3 /// KIR2DS4 /// KIR3DL3 /// KIR3DL3 /// KIR3DS1 (11738374_at) / RFU C1QL1 (11718748_at) / Fold change /veh C1QL1 (11718748_at) / RFU TMPRSS4 (11747572_a_at) / Fold change /veh TMPRSS4 (11747572_a_at) / RFU HAMP (11756126_x_at) / Fold change /veh HAMP (11756126_x_at) / RFU RNFT2 (11725882_a_at) / Fold change /veh RNFT2 (11725882_a_at) / RFU NR4A2 (11747474_a_at) / Fold change /veh NR4A2 (11747474_a_at) / RFU ABCC12 (11746883_a_at) / Fold change /veh ABCC12 (11746883_a_at) / RFU TMEM136 (11760407_x_at) / Fold change /veh TMEM136 (11760407_x_at) / RFU CLDN22 /// WWC2 (11732394_at) / Fold change /veh CLDN22 /// WWC2 (11732394_at) / RFU HLA-DPB1 (11760878_x_at) / Fold change /veh HLA-DPB1 (11760878_x_at) / RFU SPINT1 (11716480_a_at) / Fold change /veh SPINT1 (11716480_a_at) / RFU GAP43 (11754022_s_at) / Fold change /veh GAP43 (11754022_s_at) / RFU A4GNT (11735810_at) / Fold change /veh A4GNT (11735810_at) / RFU PRB3 (11715151_x_at) / Fold change /veh PRB3 (11715151_x_at) / RFU TUBB4B (11761932_at) / Fold change /veh TUBB4B (11761932_at) / RFU CAPN14 (11732068_a_at) / Fold change /veh CAPN14 (11732068_a_at) / RFU TMCC2 (11721928_a_at) / Fold change /veh TMCC2 (11721928_a_at) / RFU IRGQ (11745062_a_at) / Fold change /veh IRGQ (11745062_a_at) / RFU FAM174B (11720279_a_at) / Fold change /veh FAM174B (11720279_a_at) / RFU TMPRSS4 (11748680_a_at) / Fold change /veh TMPRSS4 (11748680_a_at) / RFU FAM212B (11763350_a_at) / Fold change /veh FAM212B (11763350_a_at) / RFU PLEKHG5 (11743358_a_at) / Fold change /veh PLEKHG5 (11743358_a_at) / RFU ZSCAN30 (11745921_a_at) / Fold change /veh ZSCAN30 (11745921_a_at) / RFU CMKLR1 (11741424_a_at) / Fold change /veh CMKLR1 (11741424_a_at) / RFU LOC101060620 /// MAPK8IP1 (11723275_at) / Fold change /veh LOC101060620 /// MAPK8IP1 (11723275_at) / RFU SPTSSB (11747773_x_at) / Fold change /veh SPTSSB (11747773_x_at) / RFU PRSS12 (11739890_at) / Fold change /veh PRSS12 (11739890_at) / RFU BIN1 (11741810_x_at) / Fold change /veh BIN1 (11741810_x_at) / RFU WNT11 (11732464_a_at) / Fold change /veh WNT11 (11732464_a_at) / RFU C10orf10 (11716521_a_at) / Fold change /veh C10orf10 (11716521_a_at) / RFU C5orf56 (11738089_at) / Fold change /veh C5orf56 (11738089_at) / RFU CYB561 (11721691_x_at) / Fold change /veh CYB561 (11721691_x_at) / RFU ANKRD19P (11752326_a_at) / Fold change /veh ANKRD19P (11752326_a_at) / RFU OR2T12 /// OR2T33 /// OR2T8 (11738714_s_at) / Fold change /veh OR2T12 /// OR2T33 /// OR2T8 (11738714_s_at) / RFU VCAN (11748164_a_at) / Fold change /veh VCAN (11748164_a_at) / RFU JSRP1 (11732532_at) / Fold change /veh JSRP1 (11732532_at) / RFU KRTAP10-11 (11738290_x_at) / Fold change /veh KRTAP10-11 (11738290_x_at) / RFU MYO3A (11730013_a_at) / Fold change /veh MYO3A (11730013_a_at) / RFU EBF3 (11725865_a_at) / Fold change /veh EBF3 (11725865_a_at) / RFU CAMK2N1 (11719241_x_at) / Fold change /veh CAMK2N1 (11719241_x_at) / RFU C5orf56 (11738088_a_at) / Fold change /veh C5orf56 (11738088_a_at) / RFU OLFML3 (11715873_a_at) / Fold change /veh OLFML3 (11715873_a_at) / RFU LOC100653217 /// NTM (11731650_a_at) / Fold change /veh LOC100653217 /// NTM (11731650_a_at) / RFU MAPK11 (11762145_a_at) / Fold change /veh MAPK11 (11762145_a_at) / RFU FIZ1 (11724087_x_at) / Fold change /veh FIZ1 (11724087_x_at) / RFU OASL (11726364_x_at) / Fold change /veh OASL (11726364_x_at) / RFU SOX15 (11748057_x_at) / Fold change /veh SOX15 (11748057_x_at) / RFU CD79A (11719716_a_at) / Fold change /veh CD79A (11719716_a_at) / RFU HIST1H1D (11736915_at) / Fold change /veh HIST1H1D (11736915_at) / RFU CASKIN2 (11723855_a_at) / Fold change /veh CASKIN2 (11723855_a_at) / RFU LOC730098 (11760151_x_at) / Fold change /veh LOC730098 (11760151_x_at) / RFU OR4N2 (11742367_at) / Fold change /veh OR4N2 (11742367_at) / RFU PRRT2 (11749266_a_at) / Fold change /veh PRRT2 (11749266_a_at) / RFU SNX32 (11753110_a_at) / Fold change /veh SNX32 (11753110_a_at) / RFU CDHR5 (11726645_a_at) / Fold change /veh CDHR5 (11726645_a_at) / RFU RCAN1 (11760418_a_at) / Fold change /veh RCAN1 (11760418_a_at) / RFU FAM167A (11723789_a_at) / Fold change /veh FAM167A (11723789_a_at) / RFU FAM26E (11764081_at) / Fold change /veh FAM26E (11764081_at) / RFU ISYNA1 (11749810_s_at) / Fold change /veh ISYNA1 (11749810_s_at) / RFU ACY1 (11761880_at) / Fold change /veh ACY1 (11761880_at) / RFU 11764098_at / Fold change /veh 11764098_at / RFU SAMD14 (11745864_x_at) / Fold change /veh SAMD14 (11745864_x_at) / RFU NPB (11741838_a_at) / Fold change /veh NPB (11741838_a_at) / RFU TMPRSS6 (11731388_a_at) / Fold change /veh TMPRSS6 (11731388_a_at) / RFU KRTAP10-2 (11738614_at) / Fold change /veh KRTAP10-2 (11738614_at) / RFU ARHGAP8 /// PRR5-ARHGAP8 (11727945_x_at) / Fold change /veh ARHGAP8 /// PRR5-ARHGAP8 (11727945_x_at) / RFU KRTAP5-7 /// NADSYN1 (11734609_at) / Fold change /veh KRTAP5-7 /// NADSYN1 (11734609_at) / RFU RASL12 (11751679_a_at) / Fold change /veh RASL12 (11751679_a_at) / RFU CDKN2B (11736163_a_at) / Fold change /veh CDKN2B (11736163_a_at) / RFU PRF1 (11729649_at) / Fold change /veh PRF1 (11729649_at) / RFU, ZNF638 /// ZNF638-IT1 / Fold change vs veh, ZNF638 /// ZNF638-IT1 / RFU, PANK3 / Fold change vs veh, PANK3 / RFU, SH3YL1 / Fold change vs veh, SH3YL1 / RFU, ZEB2 / Fold change vs veh, ZEB2 / RFU, NRIP1 / Fold change vs veh, NRIP1 / RFU, PTTG1IP / Fold change vs veh, PTTG1IP / RFU, CAPN2 / Fold change vs veh, CAPN2 / RFU, MED14 / Fold change vs veh, MED14 / RFU, SNORA58 / Fold change vs veh, SNORA58 / RFU, C1orf63 / Fold change vs veh, C1orf63 / RFU, LRRFIP1 / Fold change vs veh, LRRFIP1 / RFU, NDUFAF7 / Fold change vs veh, NDUFAF7 / RFU, SLC12A2 / Fold change vs veh, SLC12A2 / RFU, IBTK / Fold change vs veh, IBTK / RFU, ESF1 / Fold change vs veh, ESF1 / Fold change vs veh, TMEM50B / RFU, TAOK1 / Fold change vs veh, TAOK1 / RFU, ACBD3 / Fold change vs veh, ACBD3 / RFU, TMA16 / Fold change vs veh, TMA16 / RFU, RWDD3 / Fold change vs veh, RWDD3 / RFU, BCAT1 / Fold change vs veh, BCAT1 / RFU, EDEM3 / Fold change vs veh, EDEM3 / RFU, TMEM33 / Fold change vs veh, TMEM33 / RFU, WDR75 / Fold change vs veh, WDR75 / RFU, AHCTF1 / Fold change vs veh, AHCTF1 / RFU, TFRC / Fold change vs veh, TFRC / RFU, ZDHHC17 / Fold change vs veh, ZDHHC17 / RFU, NOM1 / Fold change vs veh, NOM1 / RFU, ARL8B / Fold change vs veh, ARL8B / RFU, ZBTB11 / Fold change vs veh, ZBTB11 / RFU, TAMM41 / Fold change vs veh, TAMM41 / RFU, KIAA1704 /// LOC100996395 / Fold change vs veh, KIAA1704 /// LOC100996395 / RFU, ING1 / Fold change vs veh, ING1 / RFU, TRMT61B / Fold change vs veh, TRMT61B / RFU, FUBP3 / Fold change vs veh, FUBP3 / RFU, TP53 / Fold change vs veh, TP53 / RFU, TNKS2 / Fold change vs veh, TNKS2 / RFU, ZFP14 / Fold change vs veh, ZFP14 / RFU, ACTR2 / Fold change vs veh, ACTR2 / RFU, PPP3R1 / Fold change vs veh, PPP3R1 / RFU, PIK3R1 / Fold change vs veh, PIK3R1 / RFU, HNRNPA1 / Fold change vs veh, HNRNPA1 / RFU, RNF170 / Fold change vs veh, RNF170 / RFU, ZNF28 / Fold change vs veh, ZNF28 / RFU, RNGTT / Fold change vs veh, RNGTT / RFU, OGT / Fold change vs veh, OGT / RFU, BRD1 / Fold change vs veh, BRD1 / RFU, MARS / Fold change vs veh, MARS / RFU, ZNF655 / Fold change vs veh, ZNF655 / RFU, FAHD1 / Fold change vs veh, FAHD1 / RFU, BDP1 / Fold change vs veh, BDP1 / RFU, LRRCC1 / Fold change vs veh, LRRCC1 / RFU, ARID1A / Fold change vs veh, ARID1A / RFU, ZNF146 / Fold change vs veh, ZNF146 / RFU, ZNF330 / Fold change vs veh, ZNF330 / RFU, GPN3 / Fold change vs veh, GPN3 / RFU, C9orf123 / Fold change vs veh, C9orf123 / RFU, N4BP2L2 / Fold change vs veh, N4BP2L2 / RFU, ARFIP1 / Fold change vs veh, ARFIP1 / RFU, FAM179B / Fold change vs veh, FAM179B / RFU, BCL10 / Fold change vs veh, BCL10 / RFU, UHRF1BP1L / Fold change vs veh, UHRF1BP1L / RFU, BET1 / Fold change vs veh, BET1 / RFU, CNOT2 / Fold change vs veh, CNOT2 / RFU, ZNF268 / Fold change vs veh, ZNF268 / Fold change vs veh, ZNF507 / RFU, DGCR2 / Fold change vs veh, DGCR2 / RFU, WDSUB1 / Fold change vs veh, WDSUB1 / Fold change vs veh, HSP90B1 /// MIR3652 / RFU, ADSS / Fold change vs veh, ADSS / RFU, GK / Fold change vs veh, GK / RFU, ZNF148 / Fold change vs veh, ZNF148 / RFU, TAF9 / Fold change vs veh, TAF9 / RFU, SLC1A5 / Fold change vs veh, SLC1A5 / RFU, SLMO2 / Fold change vs veh, SLMO2 / RFU, ABCC4 / Fold change vs veh, ABCC4 / RFU, LOC101060439 /// RAP1B / Fold change vs veh, LOC101060439 /// RAP1B / RFU, RFX7 / Fold change vs veh, RFX7 / RFU, GTPBP10 / Fold change vs veh, GTPBP10 / RFU, CNEP1R1 / Fold change vs veh, CNEP1R1 / RFU, BIVM-ERCC5 /// ERCC5 / Fold change vs veh, BIVM-ERCC5 /// ERCC5 / RFU, ILF3 / Fold change vs veh, ILF3 / RFU 11762660_at / Fold change /veh 11762660_at / RFU VCAN (11757783_s_at) / Fold change /veh VCAN (11757783_s_at) / RFU DDX43 (11728927_at) / Fold change /veh DDX43 (11728927_at) / RFU KRT8 (11758188_x_at) / Fold change /veh KRT8 (11758188_x_at) / RFU NKD1 (11759106_at) / Fold change /veh NKD1 (11759106_at) / RFU SRD5A1 (11742802_a_at) / Fold change /veh SRD5A1 (11742802_a_at) / RFU TPSAB1 /// TPSB2 (11721975_s_at) / Fold change /veh TPSAB1 /// TPSB2 (11721975_s_at) / RFU GSTM3 (11746129_a_at) / Fold change /veh GSTM3 (11746129_a_at) / RFU IL23R (11737362_x_at) / Fold change /veh IL23R (11737362_x_at) / RFU TMEM51 (11727254_a_at) / Fold change /veh TMEM51 (11727254_a_at) / RFU PIWIL2 (11732686_x_at) / Fold change /veh PIWIL2 (11732686_x_at) / RFU ORM1 (11744905_x_at) / Fold change /veh ORM1 (11744905_x_at) / RFU CCDC152 (11743942_at) / Fold change /veh CCDC152 (11743942_at) / RFU ECM1 (11717891_a_at) / Fold change /veh ECM1 (11717891_a_at) / RFU IL23R (11748794_a_at) / Fold change /veh IL23R (11748794_a_at) / RFU TNFAIP8L3 (11732012_x_at) / Fold change /veh TNFAIP8L3 (11732012_x_at) / RFU MBOAT4 (11741988_at) / Fold change /veh MBOAT4 (11741988_at) / RFU 11764193_at / Fold change /veh 11764193_at / RFU TMEM53 (11763286_at) / Fold change /veh TMEM53 (11763286_at) / RFU MAGEB2 (11727129_at) / Fold change /veh MAGEB2 (11727129_at) / RFU TMEM200A (11744735_a_at) / Fold change /veh TMEM200A (11744735_a_at) / RFU CCDC152 (11751479_a_at) / Fold change /veh CCDC152 (11751479_a_at) / RFU FAM211A (11726209_a_at) / Fold change /veh FAM211A (11726209_a_at) / RFU RGS16 (11746705_a_at) / Fold change /veh RGS16 (11746705_a_at) / RFU VCAN (11755009_s_at) / Fold change /veh VCAN (11755009_s_at) / RFU RHOB (11743442_s_at) / Fold change /veh RHOB (11743442_s_at) / RFU RGS16 (11720943_a_at) / Fold change /veh RGS16 (11720943_a_at) / RFU RGS16 (11720944_at) / Fold change /veh RGS16 (11720944_at) / RFU, VPS4B / Fold change vs veh, VPS4B / RFU, CREB1 / Fold change vs veh, CREB1 / RFU, DNAJC13 / Fold change vs veh, DNAJC13 / RFU, GNAQ / Fold change vs veh, GNAQ / RFU, CDK5R1 / Fold change vs veh, CDK5R1 / RFU, ZRANB3 / Fold change vs veh, ZRANB3 / RFU, CUL4A / Fold change vs veh, CUL4A / RFU, CCNY / Fold change vs veh, CCNY / RFU, UFL1 / Fold change vs veh, UFL1 / RFU, COG3 / Fold change vs veh, COG3 / RFU, DIAPH2 / Fold change vs veh, DIAPH2 / RFU, SKA2 / Fold change vs veh, SKA2 / RFU, AFF3 / Fold change vs veh, AFF3 / RFU, LMF1 / Fold change vs veh, LMF1 / RFU, IPO11 / Fold change vs veh, IPO11 / RFU, DFFB / Fold change vs veh, DFFB / RFU, FOXP1 / Fold change vs veh, FOXP1 / RFU, CARD8 / Fold change vs veh, CARD8 / RFU, STRN3 / Fold change vs veh, STRN3 / RFU, ADK / Fold change vs veh, ADK / RFU, RASSF2 / Fold change vs veh, RASSF2 / RFU, WIPF1 / Fold change vs veh, WIPF1 / RFU, LARP1B / Fold change vs veh, LARP1B / RFU, RASA1 / Fold change vs veh, RASA1 / RFU, RB1 / Fold change vs veh, RB1 / RFU, PPFIA1 / Fold change vs veh, PPFIA1 / RFU, MAT2A / Fold change vs veh, MAT2A / RFU, CCT5 / Fold change vs veh, CCT5 / RFU, WDR92 / Fold change vs veh, WDR92 / RFU, CUX1 / Fold change vs veh, CUX1 / RFU, TTC7A / Fold change vs veh, TTC7A / RFU, TMEM135 / Fold change vs veh, TMEM135 / RFU, DEPTOR / Fold change vs veh, DEPTOR / RFU, CPM / Fold change vs veh, CPM / RFU, DNAJB6 / Fold change vs veh, DNAJB6 / RFU, CACNA2D3 / Fold change vs veh, CACNA2D3 / RFU, DTX4 / Fold change vs veh, DTX4 / RFU, TFCP2 / Fold change vs veh, TFCP2 / RFU, GMCL1 /// GMCL1P1 / Fold change vs veh, GMCL1 /// GMCL1P1 / RFU, AEBP2 / Fold change vs veh, AEBP2 / RFU, SNHG1 /// SNORD22 /// SNORD25 /// SNORD26 /// SNORD27 /// SNORD28 /// SNORD29 /// SNORD31 / Fold change vs veh, SNHG1 /// SNORD22 /// SNORD25 /// SNORD26 /// SNORD27 /// SNORD28 /// SNORD29 /// SNORD31 / Fold change (Aza/veh), C12orf56 (ProbeSet 11735607_a_at) / Fold change (ACY-1035/veh), C12orf56 (ProbeSet 11735607_a_at) / Fold change (Aza/veh), FGFR1OP (ProbeSet 11751329_s_at) / Fold change (ACY-1035/veh), FGFR1OP (ProbeSet 11751329_s_at) / Fold change (Aza/veh), VPS36 (ProbeSet 11739960_a_at) / Fold change (ACY-1035/veh), VPS36 (ProbeSet 11739960_a_at) / RFU SYPL1 (11715823_x_at) / Fold change /veh SYPL1 (11715823_x_at) / RFU IGFBP7 (11715501_s_at) / Fold change /veh IGFBP7 (11715501_s_at) / RFU REEP3 (11722064_at) / Fold change /veh REEP3 (11722064_at) / RFU IGLL1 (11728026_x_at) / Fold change /veh IGLL1 (11728026_x_at): dose or concentration left out as unconfirmed
# Details: MV-4-11 cells, 48 hours
smiles,measurement,value
Nc1ncn([C@@H]2O[C@H](CO)[C@@H](O)[C@H]2O)c(=O)n1 [azacitidine],Fold change /veh TMEM136 (11760407_x_at),1.19
